Experimental findings from ChEMBL document CHEMBL3421597, “(±) cis-Bisamido epoxides: A novel series of potent FXIII-A inhibitors” (Eur J Med Chem, 2015) are described below.

The term IC50 denotes the concentration needed to halve the response being measured. What is called residual activity is the signal under treatment as a percentage of the control signal.

The target in assay [1] is T1, Coagulation factor XIII A chain (Homo sapiens, UniProt P00488).
T1 sequence (P00488 whole entry): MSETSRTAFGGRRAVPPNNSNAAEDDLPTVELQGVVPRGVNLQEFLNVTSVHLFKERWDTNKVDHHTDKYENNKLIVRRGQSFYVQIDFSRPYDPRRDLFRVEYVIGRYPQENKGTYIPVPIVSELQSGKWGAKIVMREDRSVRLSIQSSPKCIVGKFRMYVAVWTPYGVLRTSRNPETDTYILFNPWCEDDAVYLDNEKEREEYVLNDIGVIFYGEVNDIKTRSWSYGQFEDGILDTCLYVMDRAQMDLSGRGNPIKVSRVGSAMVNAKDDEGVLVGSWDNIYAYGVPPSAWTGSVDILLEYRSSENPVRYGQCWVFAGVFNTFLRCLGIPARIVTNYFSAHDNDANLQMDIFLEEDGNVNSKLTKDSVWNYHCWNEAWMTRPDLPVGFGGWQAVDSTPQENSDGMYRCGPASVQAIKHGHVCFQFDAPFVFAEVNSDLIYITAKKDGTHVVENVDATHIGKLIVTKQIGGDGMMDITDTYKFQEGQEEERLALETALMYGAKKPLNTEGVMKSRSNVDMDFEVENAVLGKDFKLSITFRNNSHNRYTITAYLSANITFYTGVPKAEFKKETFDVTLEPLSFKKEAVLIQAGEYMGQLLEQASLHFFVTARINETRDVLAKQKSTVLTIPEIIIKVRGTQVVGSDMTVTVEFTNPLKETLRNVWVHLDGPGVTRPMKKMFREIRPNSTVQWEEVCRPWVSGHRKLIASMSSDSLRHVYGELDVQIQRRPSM
In words: Inhibition of thrombin-activated F13-A (unknown origin) in plasma assessed as inhibition of fibrin clot formation after 7 mins by biotin incorporation assay.

For assay [2], the target named is Cathepsin S (Homo sapiens) (UniProt P25774). In words: Inhibition of cathepsin S (unknown origin) using Z-Val-Val-Arg-AMC as substrate at 100 uM measured every minute for 30 mins by fluorometric plate reader analysis.
Cathepsin S (Homo sapiens), sequence (P25774 115-331 limits assumed): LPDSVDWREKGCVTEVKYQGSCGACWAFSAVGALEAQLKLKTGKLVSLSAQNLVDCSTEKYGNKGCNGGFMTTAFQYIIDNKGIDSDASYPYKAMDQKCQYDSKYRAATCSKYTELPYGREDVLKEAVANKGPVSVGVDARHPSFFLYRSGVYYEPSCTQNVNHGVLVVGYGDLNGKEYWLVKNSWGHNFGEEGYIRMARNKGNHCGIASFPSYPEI
For a further assay, the species on record is Homo sapiens. In words: Selectivity ratio, ratio of concentration required for inhibition of cathepsin S (unknown origin) to IC50 for F13-A (unknown origin).
The target in assay [3] is T2, Protein-glutamine gamma-glutamyltransferase (Homo sapiens, UniProt P21980).
T2 sequence (P21980 whole entry): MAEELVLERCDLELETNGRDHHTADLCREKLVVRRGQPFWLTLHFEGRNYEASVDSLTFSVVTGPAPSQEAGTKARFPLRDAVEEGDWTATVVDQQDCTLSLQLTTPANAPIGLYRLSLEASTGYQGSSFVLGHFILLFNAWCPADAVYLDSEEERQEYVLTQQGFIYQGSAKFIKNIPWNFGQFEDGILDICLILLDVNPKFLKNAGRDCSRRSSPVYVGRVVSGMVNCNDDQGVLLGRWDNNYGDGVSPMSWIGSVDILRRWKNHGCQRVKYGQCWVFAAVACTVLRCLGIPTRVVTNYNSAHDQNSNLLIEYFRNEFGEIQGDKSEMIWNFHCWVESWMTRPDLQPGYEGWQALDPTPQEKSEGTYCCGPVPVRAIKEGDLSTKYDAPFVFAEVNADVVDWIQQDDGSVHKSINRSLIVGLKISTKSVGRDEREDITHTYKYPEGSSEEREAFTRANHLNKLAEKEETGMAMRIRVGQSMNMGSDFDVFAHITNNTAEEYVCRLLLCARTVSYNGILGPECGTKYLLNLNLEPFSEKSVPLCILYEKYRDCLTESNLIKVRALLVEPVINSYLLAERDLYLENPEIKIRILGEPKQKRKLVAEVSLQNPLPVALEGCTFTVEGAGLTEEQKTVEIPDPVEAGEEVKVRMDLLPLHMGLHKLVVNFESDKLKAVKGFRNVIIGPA
In words: Inhibition of transglutaminase 2 (unknown origin).

For assay [4], the target named is T3, Coagulation factor XIII A chain (Homo sapiens) (UniProt P00488).
T3 sequence (whole entry): T1 sequence (P00488 whole entry)
In words: Inhibition of F13-A in human plasma assessed as inhibition of fibrin clot formation at 1 X 10^-6 M by biotin incorporation assay. As to conditions: values are per cent of control.

For assay [5], the target named is T3, Coagulation factor XIII A chain (Homo sapiens). The experiment in a line: Inhibition of F13-A in human plasma assessed as inhibition of fibrin clot formation at 2 X 10^-7 M by biotin incorporation assay. The following applies: values are per cent of control.
The target is the same in assay [6]. In words: Inhibition of F13-A in human plasma assessed as inhibition of fibrin clot formation at 7.5 X 10^-8 M by biotin incorporation assay. As to conditions: values are per cent of control.
The target is the same in assay [7]. In words: Inhibition of F13-A in human plasma assessed as inhibition of fibrin clot formation at 2 X 10^-8 M by biotin incorporation assay. As to conditions: values are per cent of control.
The target is the same in assay [8]. In words: Inhibition of F13-A in human plasma assessed as inhibition of fibrin clot formation at 1 X 10^-6 M by biotin incorporation assay in presence of 10 X 10^-3 mol/l reduced GSH. The following applies: values are per cent of control.
Assay [9] has the same target. In words: Inhibition of F13-A in human plasma assessed as inhibition of fibrin clot formation at 2 X 10^-7 M by biotin incorporation assay in presence of 10 X 10^-3 mol/l reduced GSH. As to conditions: values are per cent of control.
Assay [10] has the same target. In words: Inhibition of F13-A in human plasma assessed as inhibition of fibrin clot formation at 7.5 X 10^-8 M by biotin incorporation assay in presence of 10 X 10^-3 mol/l reduced GSH. The following applies: values are per cent of control.
For assay [11] the target is unchanged. In words: Inhibition of F13-A in human plasma assessed as inhibition of fibrin clot formation at 2 X 10^-8 M by biotin incorporation assay in presence of 10 X 10^-3 mol/l reduced GSH. As to conditions: values are per cent of control.
In assay [12] the target is T1, Coagulation factor XIII A chain. The experiment in a line: Inhibition of F13-A in human plasma assessed as inhibition of fibrin clot formation by biotin incorporation assay in presence of 1 mM reduced GSH.
Assay [13] addresses T3, Coagulation factor XIII A chain (Homo sapiens). The experiment in a line: Inhibition of F13-A (unknown origin) at 10^-6 mol/l in presence of 5 X 10^-3 mol/l DTT.

Active and inactive are the calls of the source. The rule behind the calls is not given here.

`NC(=O)[C@@H]1O[C@@H]1C(=O)Nc1ccc(Br)c(Cl)c1` (racemic): the IC50 in assay [1] came to 4 nM; in assay [3], 9.6 nM. In addition, in [2], the inhibition entry was “inactive”. Moreover, in the assay filed under Homo sapiens, the Selectivity ratio was determined as 10000.
As to `Cc1ccc(NC(=O)[C@H]2O[C@H]2C(N)=O)cc1C` (racemic), the 50% inhibitory concentration (IC50) worked out at 110 nM in [1] and 130 nM in assay [3]. Also, the inhibition result in assay [2] is “inactive”. Further, the Selectivity ratio in the assay listed under Homo sapiens stood at 10000.
In the case of `NC(=O)[C@@H]1O[C@@H]1C(=O)Nc1ccc(Oc2ccc([N+](=O)[O-])cc2)cc1` (racemic), the IC50 in assay [1] is 430 nM. For the same compound, the inhibition entry in assay [2] is “inactive”. Also, the Selectivity ratio in the assay listed under Homo sapiens is 10000.
Turning to `CCCCc1ccc(NC(=O)[C@@H]2O[C@@H]2C(N)=O)cc1` (racemic), the IC50 in [1] was found to be 220 nM; in assay [3], 150 nM. Moreover, the residual activity in [4] was 27%; in [5], 76%; in assay [6], 99%; in [7] it was 93%; in assay [8], 34%; in assay [9] it was 79%. The residual activity turned out to be 104% in assay [10] and 102% in [11]. In addition, in [2], the inhibition result was “inactive”. Also, the Selectivity ratio in the assay listed under Homo sapiens is 10000.
As to `NC(=O)[C@@H]1O[C@@H]1C(=O)Nc1ccc(Br)cc1` (racemic), the values for the IC50 in assay [1] and in [3] were 130 nM and 57 nM, respectively. Moreover, the inhibition entry in [2] was “inactive”. Also, the Selectivity ratio in the assay listed under Homo sapiens was 10000.
Regarding `NC(=O)[C@H]1O[C@H]1C(=O)Nc1cccc(Cl)c1` (racemic), the IC50 in assay [1] and in assay [3] was 48 nM throughout. Also, in assay [2], the inhibition result was “inactive”. Moreover, the Selectivity ratio in the assay listed under Homo sapiens came to 10000.
`C/C=C/C/C=C/CCC(=O)[C@H]1O[C@H]1C(N)=O` [CERULENIN]: the IC50 in assay [1] was 4000 nM; in assay [12] it was 18000 nM.
For the compound `NC(=O)[C@H]1O[C@H]1C(=O)Nc1cccc(Oc2ccccc2)c1` (racemic), the IC50 is 4 nM in [1] and 50 nM in [3]. Also, the inhibition entry in assay [2] is “inactive”. The Selectivity ratio in the assay listed under Homo sapiens came out at 10000.
With `NC(=O)[C@H]1O[C@H]1C(=O)Nc1ccc(Oc2ccccc2)cc1` (racemic), the IC50 in assay [1] came to 55 nM; in assay [3] it was 46 nM. The residual activity in [4] worked out at 6.1%; in assay [5] it was 32%; in [6], 66%; in [7] it was 96%; in assay [8], 7.8%; in [9], 47%. The residual activity in [10] was determined as 78%; in [11], 90%. The inhibition entry in assay [2] was “inactive”. Also, in the assay listed under Homo sapiens, the Selectivity ratio was 10000. Also, in assay [13], the inhibition result was “Active”.
On to `NC(=O)[C@@H]1O[C@@H]1C(=O)Nc1ccc(Oc2ccc(NC(=O)c3ccc(F)cc3)cc2)cc1` (racemic), for which the IC50 was determined as 100 nM in assay [1] and 150 nM in assay [3]. For the same compound, the inhibition result in [2] was “inactive”. Moreover, in the assay listed under Homo sapiens, the Selectivity ratio is 10000.
Turning to `NC(=O)[C@@H]1O[C@@H]1C(=O)Nc1ccc(CCNS(=O)(=O)c2ccccc2[N+](=O)[O-])cc1` (racemic), the values for the IC50 in assay [1] and in assay [3] were 90 nM and 88 nM, respectively. Besides, the inhibition result in [2] was “inactive”. In the assay listed under Homo sapiens, the Selectivity ratio is 10000.
Consider `NC(=O)[C@@H]1O[C@@H]1C(=O)Nc1ccc(Oc2ccc(N)cc2)cc1` (racemic), for which the IC50 in assay [1] is 86 nM; in assay [3], 48 nM. The inhibition entry in assay [2] was “inactive”. Further, the Selectivity ratio in the assay filed under Homo sapiens came to 10000.
As for `NC(=O)[C@@H]1O[C@@H]1C(=O)Nc1ccccc1` (racemic), the IC50 in assay [1] came out at 720 nM; in assay [3], 1100 nM. Further, the inhibition result in [2] was “inactive”. In addition, in the assay filed under Homo sapiens, the Selectivity ratio worked out at 10000.
